Results published in the supplement of paper PMC10627819.

Legend:
[1] = system: B. subtilis 168; test: fitness (endpoint OD595 vs no drug) (fraction); higher = more growth
Summary of the method: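 Fitness expresses the optical density reached at the stationary-phase transition as a fraction of the robust mean of no-drug control wells. It is capped at 1. Measurements were OD595 every 30 min for 14 h at 37 °C after inoculation of 384-well plates at OD595 0.01 (30 µl, or 55 µl for S. pneumoniae), minus the first reading.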

[2] = system: B. subtilis 168; test: Bliss interaction score (quartile over a dose matrix) (fitness difference); higher = more antagonism (negative = synergy)
Summary of the method: (§1)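 Quartiles summarise the Bliss score over technical, biological and donor/recipient replicates, where the score is observed minus expected fitness under a product model. Expected fitness uses single-drug values inferred from combination data. Fitness is OD595 at entry into stationary phase over the plate's robust no-drug mean, capped at 1.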

[3] = system: S. aureus DSM 20231; test: as above
Summary of the method: as §1

[4] = system: S. aureus Newman; test: as above
Summary of the method: as §1

[5] = system: S. pneumoniae D39V; test: as above
Summary of the method: as §1
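Throughout, for Bliss interaction score (quartile over a dose matrix): first quartile when negative (synergy) and third quartile when positive (antagonism).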

C[C@H]1c2cccc(O)c2C(=O)C2=C(O)[C@]3(O)C(=O)C(C(N)=O)=C(O)[C@@H](N(C)C)[C@@H]3[C@@H](O)[C@@H]21 [Doxycycline] + CO[C@@H]1[C@@H](OC(N)=O)[C@@H](O)[C@H](Oc2ccc3c(O)c(NC(=O)c4ccc(O)c(CC=C(C)C)c4)c(=O)oc3c2C)OC1(C)C [Novobiocin]
fitness, [1]
Settings	first compound 0.02 µg/mL	first compound 0.04 µg/mL	first compound 0.08 µg/mL
partner 0.0125 µg/mL	0.885	0.808	0.466
partner 0.025 µg/mL	0.875	0.775	0.405
partner 0.05 µg/mL	0.978	0.775	–

fitness, [1], one replicate
Settings	partner 0.1 µg/mL	partner 0.125 µg/mL	partner 0.2 µg/mL	partner 0.25 µg/mL	partner 0.5 µg/mL
first compound 0.02 µg/mL	≥ 1	0.861	0.979	0.963	0.623
first compound 0.04 µg/mL	0.874	0.787	0.895	0.712	0.547
first compound 0.08 µg/mL	0.675	0.341	0.71	0.103	0.0433

Settings	Bliss interaction score
[2]	0.0575
[3]	0.0829
[4]	0.0369
[5]	0.0928

C[C@@H]1O[C@@H]1P(=O)(O)O [Fosfomycin] + CO[C@@H]1[C@@H](OC(N)=O)[C@@H](O)[C@H](Oc2ccc3c(O)c(NC(=O)c4ccc(O)c(CC=C(C)C)c4)c(=O)oc3c2C)OC1(C)C [Novobiocin]
fitness, [1]
Settings	first compound 1.562 µg/mL	first compound 3.124 µg/mL	first compound 6.248 µg/mL
partner 0.0125 µg/mL	0.712	0.609	0.44
partner 0.025 µg/mL	0.658	0.586	0.408
partner 0.05 µg/mL	0.792	0.69	0.47

fitness, [1], one replicate
Settings	partner 0.1 µg/mL	partner 0.125 µg/mL	partner 0.2 µg/mL	partner 0.25 µg/mL	partner 0.5 µg/mL
first compound 1.562 µg/mL	0.746	0.785	0.793	0.7	0.12
first compound 3.124 µg/mL	0.698	0.782	0.691	0.637	0.0455
first compound 6.248 µg/mL	0.531	0.551	0.507	0.36	0.0252

Settings	Bliss interaction score
[2]	-0.0536
[3]	0.1
[4]	0.0635
[5]	-0.102
